Assays:
Ki67 = experiment: Immunofluorescence of Ki67 in tumor sections; assay type: in vivo, mice
Experimental: Quantification of tumor cells staining positive for Ki67 with different treatment groups is shown, expressed as the percentage of Ki67 positive cells. The data represent the mean+SD of four HPF images (60×) for each treatment. **, p<0.01, ***, p<0.001. N=˜50 cells/image.
After the tumors were fixed and a heat-mediated antigen retrieval step was performed, the tumors were permeabilized (0.1% Triton X-100) for 10 min and then blocked with 5% BSA in 0.1% PBS-Tween for 2 h. […] Nuclear DNA was labeled with DAPI.

MDA-MB-435 = experiment: In vivo tumor experiments, tumor size; parameters: species or system mice; conditions: low dose 2.2 μg/injection, versus untreated controls
Experimental: MDA-MB-435 cells (4×10^6 cells per injection) were subcutaneously injected bilaterally into each mouse. After 4 days, when the subcutaneous tumors were about 45 mm3, the mice were separated into groups of 6 mice to determine the efficacy of treatments. The groups were as follows: untreated, nanoplex alone, low dose doxorubicin (2.2 μg/injection), high dose doxorubicin (4.4 μg/injection, low dose doxorubicin nanoplex (2.2 μg/injection), high dose doxorubicin nanoplex (4.4 μg/injection). The mice were given five intravenous injections of the various treatments. Nanoplexes were administered every 2 to 3 days (Monday, Wednesday, Friday). Tumor size was assessed with calipers before each injection and 2 days after the last injection; the size was calculated by formula ½×d1×d22, where d2 is the smaller of the two measurements. Mice were weighed before each injection with tumor weight subtracted to obtain the final weight.

COc1cccc2c1C(=O)c1c(O)c3c(c(O)c1C2=O)C[C@@](O)(C(=O)CO)C[C@@H]3O[C@H]1C[C@H](N)[C@H](O)[C@H](C)O1 [free doxorubicin, doxorubicin]
tumor cells stained positive for Ki67 (Ki67; high dose, 4.4 μg doxorubicin/injection): about 57% | tumor cells stained positive for Ki67 (Ki67; low dose, 2.2 μg doxorubicin/injection): 80% | effect on growth / size of tumors (words) (MDA-MB-435): does not reduce the size of tumors | effect on growth / size of tumors (words) (MDA-MB-435; listed as doxorubicin): no effect

Source: patent US12383632B2, “Doxorubicin containing nanoplexes and uses thereof” (University of Maryland, Baltimore, priority 2019, dated 2025)
